Source: US20100234377A1 (priority 2007, published 2010)

Target: T1, human Prostaglandin D Synthase (GST2) (Homo sapiens, UniProt O60760)
T1 construct: the open reading frame of human Prostaglandin D Synthase was amplified from cDNA; made in house; host or cells: E. coli TOP10F'
Experiment: Homogeneous biochemical assay of human Prostaglandin D Synthase (GST2) based on its glutathion-S-transferase activity (GSH conjugation to monochlorobimane, fluorescence)
Conditions: given beside the compound name in Examples 1 to 167; read-out: Potency Range (GST2 IC50)
From the text: Homogeneous, Biochemical Assay Monitoring the Activity of Human Prostaglandin D Synthase Based on the Glutathion-S-Transferase Activity of the Enzyme
Prostaglandin D2 synthesis by Prostaglandin D synthase (GST2) requires transfer of Glutathion (GSH) to the substrate, Prostaglandin H2. […] Since the Prostaglandin D2 synthesis is absolutely dependent on the GST activity of the enzyme, assays monitoring the GST activity should allow to identify specific inhibitors of Prostaglandin D2 synthetic activity. The assay principle used is based on enzymatic conjugation of GSH to Monochlorobimane (MCB), that becomes fluorescent upon this chemical modification. Therefore, the enzymatic reaction can be monitored by total fluorescence measurement.
In brief, the open reading frame of human Prostaglandin D Synthase was amplified from cDNA using the primer pair:
This construct allows prokaryotic expression of Prostaglandin D Synthase as fusion protein with a N-terminal hexa-histidine tag, referred to as NHis-Prostaglandin D Synthase.
Expression of NHis-Prostaglandin D Synthase was in E. coli TOP10F′ (Invitrogen, Germany, cat. no. C3030-03). […] When the culture had reached a density corresponding to an A600 of 0.6, an equal volume of room temperature LB/ampicillin was added. […] Cells harvested by centrifugation were resuspended in 50 mM tris(hydroxymethyl)aminomethane hydrochloride pH 7.5 (Tris/HCl, Sigma, cat. no. T5941).
Removal of unbound material was with 100 ml lysis buffer. Elution was with 50 ml of 50 mM Tris/HCl pH 7.5, 300 mM imidazol (Sigma, Germany, cat. no. I2399)/HCl pH 7.5). […] Aliquots were shock frozen in liquid nitrogen and stored at −80° C.
All assay components were diluted in reaction buffer, 50 mM MES/KOH (pH 6.1), 0.7 mM GSH (Sigma, G4251), 2 mM MgCl2 (Sigma, M2670), 0.05% Pluronic F127 (Sigma, P2443), and stored on ice prior to use. Compounds were diluted in 90% DMSO yielding final assay concentrations from the picomolar to three digit micromolar range.
Total fluorescent measurement was carried out with excitation and emission wavelength of 390 and 460 nm, respectively (BMG Fluostar Optima).

T1 sequence (O60760 whole entry): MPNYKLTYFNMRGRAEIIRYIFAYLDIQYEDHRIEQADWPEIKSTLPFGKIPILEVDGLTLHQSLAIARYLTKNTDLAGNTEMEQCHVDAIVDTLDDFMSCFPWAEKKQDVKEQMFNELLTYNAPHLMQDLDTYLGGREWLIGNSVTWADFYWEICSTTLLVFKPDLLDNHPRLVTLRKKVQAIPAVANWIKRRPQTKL

Row | IC50 [nM] | Structure (SMILES)
1 | 11 to 100 | O=C(Nc1ccc(S(=O)(=O)N2CCOCC2)cc1)N1CCN(C(=O)c2cccc(F)c2)CC1 [Compound 91, 4-(3-Fluoro-benzoyl)-piperazine-1-carboxylic acid [4-(morpholine-4-sulfonyl)-phenyl]-amide]
2 | 101 to 1000 | CC(C)c1noc(-c2ccc(NC(=O)N3CCN(C(=O)c4cccc(F)c4)CC3)cc2)n1 [Compound 142, 4-(3-Fluoro-benzoyl)-piperazine-1-carboxylic acid [4-(3-isopropyl-[1,2,4]oxadiazol-5-yl)-phenyl]-amide]
3 | 101 to 1000 | CC(C)NC(=O)N1CCN(c2ccc(NC(=O)N3CCN(C(=O)c4cc(F)ccc4F)CC3)cc2F)CC1 [Compound 55, 4-(2,5-difluorobenzoyl)-N-{3-fluoro-4-[4-(isopropylcarbamoyl)piperazin-1-yl]phenyl}piperazine-1-carboxamide]
4 | 11 to 100 | O=C(Nc1ccc(NC(=O)N2CCN(C(=O)c3cc(F)ccc3F)CC2)cc1)c1cccc[n+]1[O-] [Compound 118, 4-(2,5-Difluoro-benzoyl)-piperazine-1-carboxylic acid {4-[(1-oxy-pyridine-2-carbonyl)-amino]-phenyl}-amide]
5 | 11 to 100 | CC(=O)Nc1ccc2nc(NC(=O)N3CCN(C(=O)c4cccc(F)c4)CC3)sc2c1 [Compound 84, 4-(3-Fluoro-benzoyl)-piperazine-1-carboxylic acid (6-acetylamino-benzothiazol-2-yl)-amide]
6 | 101 to 1000 | COC(=O)c1ccc(NC(=S)N2CCN(C(=O)c3ccc(F)cc3)CC2)cc1 [Compound 11, 4-{[4-(4-Fluoro-benzoyl)-piperazine-1-carbothioyl]-amino}-benzoic acid methyl ester]
7 | 11 to 100 | O=C(Nc1ccc(Br)c(-c2ccncc2)c1)N1CCN(C(=O)c2cccc(F)c2)CC1 [Compound 43, 4-(3-Fluoro-benzoyl)-piperazine-1-carboxylic acid (4-bromo-3-pyridin-4-yl-phenyl)-amide]
8 | 1 to 10 | O=C(Nc1nc2ccc(Cl)cc2s1)N1CCN(C(=O)c2cccc(F)c2)CC1 [Compound 82, 4-(3-Fluoro-benzoyl)-piperazine-1-carboxylic acid (6-chloro-benzothiazol-2-yl)-amide]
9 | 101 to 1000 | O=C(Nc1nc(-c2ccncc2)cs1)N1CCN(C(=O)c2cccc(F)c2)CC1 [Compound 75, 4-(3-Fluoro-benzoyl)-piperazine-1-carboxylic acid (4-pyridin-4-yl-thiazol-2-yl)-amide]
10 | 101 to 1000 | CCOC(=O)c1ccc(NC(=O)N2CCN(C(=O)c3cccc(F)c3)CC2)cc1 [Compound 33, 4-{[4-(3-Fluoro-benzoyl)-piperazine-1-carbonyl]-amino}-benzoic acid ethyl ester]
11 | 101 to 1000 | O=C(Nc1cccc(NC(=O)N2CCN(C(=O)c3cccc(F)c3)CC2)c1)c1cccc[n+]1[O-] [Compound 108, 4-(3-Fluoro-benzoyl)-piperazine-1-carboxylic acid {3-[(1-oxy-pyridine-2-carbonyl)-amino]-phenyl}-amide]
12 | 11 to 100 | Nc1ccc2nc(NC(=O)N3CCN(C(=O)c4cccc(F)c4)CC3)sc2c1 [Compound 136, 4-(3-Fluoro-benzoyl)-piperazine-1-carboxylic acid (6-amino-benzothiazol-2-yl)-amide]
13 | 101 to 1000 | O=C(Nc1cccc([N+](=O)[O-])c1)N1CCN(C(=O)c2cccc(F)c2)CC1 [Compound 36, 4-(3-Fluoro-benzoyl)-piperazine-1-carboxylic acid (3-nitro-phenyl)-amide]
14 | 101 to 1000 | O=C(c1cccc([N+](=O)[O-])c1)N1CCN(C(=S)Nc2ccc(N3CCOCC3)nc2)CC1 [Compound 153, 4-(3-Nitro-benzoyl)-piperazine-1-carbothioic acid (6-morpholin-4-yl-pyridin-3-yl)-amide]
15 | 101 to 1000 | O=C(c1cccc(F)n1)N1CCN(C(=S)Nc2ccc(C(F)(F)F)cc2)CC1 [Compound 20, 4-(6-Fluoro-pyridine-2-carbonyl)-piperazine-1-carbothioic acid (4-trifluoromethyl-phenyl)-amide]
16 | 101 to 1000 | O=C(Nc1ccc(C(=O)N2CCOCC2)c(F)c1)N1CCN(C(=O)c2cccc(F)c2)CC1 [Compound 97, 4-(3-Fluoro-benzoyl)-piperazine-1-carboxylic acid [3-fluoro-4-(morpholine-4-carbonyl)-phenyl]-amide]
17 | 11 to 100 | NC(=O)c1ccc2nc(NC(=O)N3CCN(C(=O)c4cccc(F)c4)CC3)sc2c1 [Compound 141, 2-{[4-(3-Fluoro-benzoyl)-piperazine-1-carbonyl]-amino}-benzothiazole-6-carboxylic acid amide]

Row | IC50 [nM] | Structure (SMILES)
18 | 101 to 1000 | Nc1cccc(NC(=O)N2CCN(C(=O)c3cccc(F)c3)CC2)c1 [Compound 106, 4-(3-Fluoro-benzoyl)-piperazine-1-carboxylic acid (3-amino-phenyl)-amide]
19 | 11 to 100 | CC(C)(C)OC(=O)N1CCN(c2ccc(NC(=O)N3CCN(C(=O)c4cccc(F)c4)CC3)cc2F)CC1 [Compound 46, 4-(2-Fluoro-4-{[4-(3-fluoro-benzoyl)-piperazine-1-carbonyl]-amino}-phenyl)-piperazine-1-carboxylic acid tert-butyl ester]
20 | 11 to 100 | O=C(Nc1nnc(-c2ccncc2)s1)N1CCN(C(=O)c2cccc(F)c2)CC1 [Compound 71, 4-(3-Fluoro-benzoyl)-piperazine-1-carboxylic acid (5-pyridin-4-yl[1,3,4]thiadiazol-2-yl)-amide]
21 | 101 to 1000 | O=C(Nc1cccc(NS(=O)(=O)c2ccc(F)cc2)c1)N1CCN(C(=O)c2cccc(F)c2)CC1 [Compound 130, 4-(3-Fluoro-benzoyl)-piperazine-1-carboxylic acid [3-(4-fluoro-benzenesulfonylamino)-phenyl]-amide]
22 | 101 to 1000 | O=C(Nc1ccc(NS(=O)(=O)C2CC2)cc1)N1CCN(C(=O)c2cc(F)ccc2F)CC1 [Compound 132, 4-(2,5-Difluoro-benzoyl)-piperazine-1-carboxylic acid (4-cyclopropanesulfonylamino-phenyl)-amide]
23 | 101 to 1000 | O=C(c1ccccc1)N1CCN(C(=S)Nc2ccc(F)cc2)CC1 [Compound 4, 4-Benzoyl-piperazine-1-carbothioic acid (4-fluoro-phenyl)-amide]
24 | 11 to 100 | O=C(Nc1ccc(NS(=O)(=O)C2CC2)cc1)N1CCN(C(=O)c2cccc(F)c2)CC1 [Compound 127, 4-(3-Fluoro-benzoyl)-piperazine-1-carboxylic acid (4-cyclopropanesulfonylamino-phenyl)-amide]
25 | 11 to 100 | O=C(Nc1cccc(Oc2ccccc2)c1)N1CCN(C(=O)c2cccc(F)c2)CC1 [Compound 25, 4-(3-Fluoro-benzoyl)-piperazine-1-carboxylic acid (3-phenoxy-phenyl)-amide]
26 | 101 to 1000 | O=C(Nc1cccc(NS(=O)(=O)C2CC2)c1)N1CCN(C(=O)c2cccc(F)c2)CC1 [Compound 131, 4-(3-Fluoro-benzoyl)-piperazine-1-carboxylic acid (3-cyclopropanesulfonylamino-phenyl)-amide]
27 | 101 to 1000 | Cc1ccc(NC(=S)N2CCN(C(=O)c3ccccc3)CC2)cc1 [Compound 7, 4-Benzoyl-piperazine-1-carbothioic acid p-tolylamide]
28 | 101 to 1000 | O=C(Nc1ccc(F)nc1)c1ccc(NC(=O)N2CCN(C(=O)c3cccc(F)c3)CC2)cc1F [Compound 99, 4-(3-Fluoro-benzoyl)-piperazine-1-carboxylic acid [3-fluoro-4-(6-fluoro-pyridin-3-ylcarbamoyl)-phenyl]-amide]
29 | 101 to 1000 | O=C(Nc1cccc(-c2cccnc2)c1)N1CCN(C(=O)c2cccc(F)c2)CC1 [Compound 87, 4-(3-Fluoro-benzoyl)-piperazine-1-carboxylic acid (3-pyridin-3-yl-phenyl)-amide]
30 | 101 to 1000 | O=C(Nc1ccc(C(F)(F)F)cc1)N1CCN(C(=O)c2cc(F)ccc2F)CC1 [Compound 148, 4-(2,5-Difluoro-benzoyl)-piperazine-1-carboxylic acid (4-trifluoromethyl-phenyl)-amide]
31 | 101 to 1000 | CS(=O)(=O)Nc1ccc(NC(=O)N2CCN(C(=O)c3cc(F)ccc3F)CC2)cc1 [Compound 133, 4-(2,5-Difluoro-benzoyl)-piperazine-1-carboxylic acid (4-methanesulfonylamino-phenyl)-amide]
32 | 101 to 1000 | COc1ccc(NC(=S)N2CCN(C(=O)c3ccc(F)cc3)CC2)cc1 [Compound 12, 4-(4-Fluoro-benzoyl)-piperazine-1-carbothioic acid (4-methoxy-phenyl)-amide]
33 | 101 to 1000 | O=C(c1cccc(F)n1)N1CCN(C(=S)Nc2ccc(N3CCOCC3)c(F)c2)CC1 [Compound 40, 4-(6-Fluoro-pyridine-2-carbonyl)-piperazine-1-carbothioic acid (3-fluoro-4-morpholin-4-yl-phenyl)-amide]
